{
  "source": "patent US7585834B2",
  "about": "“Transporters comprising spaced arginine moieties” (The Board of Trustees of the Leland Stanford Junior …, priority 2001, dated 2009)",
  "note": "Ahx = NCCCCCC(=O)O; Fl = fluorescein",
  "data": [
    {"system": "human T cell line, Jurkat", "assay": "cellular uptake assay of fluorescently labeled peptides (flow cytometry, mean fluorescent signal)", "assay_type": "cell-based", "settings": "FIG. 1; single amino acid spacing without side chains (glycine, abu, aca); Jurkat cells", "method": "(§1) The fluorescently labeled peptides were dissolved in PBS, pH 7.2, and their concentrations were determined by absorption of fluorescein at 490 nm (ε=67,000). The human T cell line, Jurkat, grown in 10% fetal calf serum in DMEM, was used for all the cellular uptake experiments. Varying amounts of the peptides were added to 3×10^5 cells in a total of 200λ, in wells of microtiter plates, and incubated for varying periods of time, ranging from three to five minutes. The cells were spun, washed three times with cold PBS, incubated with 0.05% trypsin/0.53 mM EDTA (Gibco, Grand Island, N.Y.) at 37° C. for five minutes, washed with PBS, and resuspended in PBS containing 0.1% propidium iodide. The cells were analyzed either using confocal microscopy or fluorescent flow cytometry (FACScan, Becton Dickinson, Milpitas, Calif.). Cells staining with propidium iodide were excluded from the analysis. Data presented is the mean fluorescent signal for the 5000 cells collected. To prevent cellular uptake of the peptides, the cells were treated with sodium azide (1.0%) for 25 minutes prior to exposure to the peptides.", "values": [
      {"compound": "Fl-aca-RGRRGRRGRR-CONH2 [Seq. I.D. No. 4]", "cellular uptake of spaced arginine transport moieties tethered to fluorescein, relative to R7 homopolymer": "ε-aminocaproic acid>γ-aminobutyric acid>glycine"},
      {"compound": "Fl-aca-RabuRRabuRRabuRR-CONH2 [Seq. I.D. No. 5]", "cellular uptake of spaced arginine transport moieties tethered to fluorescein, relative to R7 homopolymer": "ε-aminocaproic acid>γ-aminobutyric acid>glycine"},
      {"compound": "Fl-aca-RacaRRacaRRacaRR-CONH2 [Seq. I.D. No. 6]", "cellular uptake of spaced arginine transport moieties tethered to fluorescein, relative to R7 homopolymer": "ε-aminocaproic acid>γ-aminobutyric acid>glycine"}
    ]},
    {"system": "human T cell line, Jurkat", "assay": "cellular uptake assay of fluorescently labeled peptides (flow cytometry, mean fluorescent signal)", "assay_type": "cell-based", "settings": "FIG. 2; spacing by naturally occurring amino acids; fluorescein conjugates; Jurkat cells", "method": "as §1", "values": [
      {"compound": "N[C@@H](CC(=O)O)C(=O)O", "note": "[Seq. I.D. No. 8]", "cellular uptake relative to the homopolymer R7 having no spacing": "Reduced, or comparable uptake"},
      {"compound": "N[C@@H](CCC(=O)O)C(=O)O", "note": "[Seq. I.D. No. 9]", "cellular uptake relative to the homopolymer R7 having no spacing": "Reduced, or comparable uptake"},
      {"compound": "N[C@@H](Cc1c[nH]cn1)C(=O)O", "note": "[Seq. I.D. No. 11]", "cellular uptake relative to the homopolymer R7 having no spacing": "increase in cellular uptake was found"},
      {"compound": "CC[C@H](C)[C@H](N)C(=O)O", "note": "[Seq. I.D. No. 12]", "cellular uptake relative to the homopolymer R7 having no spacing": "increase in cellular uptake was found"},
      {"compound": "NCCCC[C@H](N)C(=O)O", "note": "[Seq. I.D. No. 13]", "cellular uptake relative to the homopolymer R7 having no spacing": "increase in cellular uptake was found"},
      {"compound": "NC(=O)CC[C@H](N)C(=O)O", "note": "[Seq. I.D. No. 18]", "cellular uptake relative to the homopolymer R7 having no spacing": "increase in cellular uptake was found"},
      {"compound": "C[C@@H](O)[C@H](N)C(=O)O", "note": "[Seq. I.D. No. 20]", "cellular uptake relative to the homopolymer R7 having no spacing": "increase in cellular uptake was found"},
      {"compound": "N[C@@H](Cc1ccc(O)cc1)C(=O)O", "note": "[Seq. I.D. No. 22]", "cellular uptake relative to the homopolymer R7 having no spacing": "Reduced, or comparable uptake"},
      {"compound": "Fl-aca-RARRARRARR-CONH2 [Seq. I.D. No. 7]", "cellular uptake relative to the homopolymer R7 having no spacing": "increase in cellular uptake was found"},
      {"compound": "Fl-aca-RFRRFRRFRR-CONH2 ({Fl-Ahx}-RFRRFRRFRR-NH2) [Seq. I.D. No. 10]", "cellular uptake relative to the homopolymer R7 having no spacing": "increase in cellular uptake was found"},
      {"compound": "Fl-aca-RGRRGRRGRR-CONH2 [Seq. I.D. No. 4]", "cellular uptake relative to the homopolymer R7 having no spacing": "increase in cellular uptake was found"},
      {"compound": "Fl-aca-RMRRMRRMRR-CONH2 [Seq. I.D. No. 15]", "cellular uptake relative to the homopolymer R7 having no spacing": "increase in cellular uptake was found"},
      {"compound": "Fl-aca-RNRRNRRNRR-CONH2 [Seq. I.D. No. 16]", "cellular uptake relative to the homopolymer R7 having no spacing": "increase in cellular uptake was found"},
      {"compound": "Fl-aca-RPRRPRRPRR-CONH2 [Seq. I.D. No. 17]", "cellular uptake relative to the homopolymer R7 having no spacing": "increase in cellular uptake was found"},
      {"compound": "Fl-aca-RSRRSRRSRR-CONH2 [Seq. I.D. No. 19]", "cellular uptake relative to the homopolymer R7 having no spacing": "increase in cellular uptake was found"},
      {"compound": "Fl-aca-RVRRVRRVRR-CONH2 [Seq. I.D. No. 21]", "cellular uptake relative to the homopolymer R7 having no spacing": "increase in cellular uptake was found"}
    ]},
    {"system": "human T cell line, Jurkat", "assay": "cellular uptake assay of fluorescently labeled peptides (flow cytometry, mean fluorescent signal)", "assay_type": "cell-based", "settings": "FIG. 4; 6.25 μM; Jurkat cells", "method": "as §1", "values": [
      {"compound": "Fl-aca-R7CONH2 [Seq. I.D. No. 2, reference compound]", "cellular uptake at the lower concentration": "begins to drop off"}
    ]},
    {"system": "human T cell line, Jurkat", "assay": "cellular uptake assay of fluorescently labeled peptides (flow cytometry, mean fluorescent signal)", "assay_type": "cell-based", "settings": "FIG. 6; compared with (RX)6R, X = aca, gly-gly or gly; Jurkat cells", "method": "as §1", "values": [
      {"compound": "Fl-aca-r13-CONH2 [Seq. I.D. No. 28, reference compound]", "uptake (mean fluorescence) of (RX)6R transport oligomers versus homopolymers of D-arginine": "significantly less effective in entering the cells"},
      {"compound": "Fl-aca-r19-CONH2 [Seq. I.D. No. 29, reference compound]", "uptake (mean fluorescence) of (RX)6R transport oligomers versus homopolymers of D-arginine": "significantly less effective in entering the cells"}
    ]}
  ]
}
